Experiments:
[1] = tested on: MCF-7/ADR cells; test: Transport of BODIPY-transferrin from recycling endosomes to cell surface
[2] = tested on: MCF-7adr cells; test: Bodipy-ceramide and Bodipy-lactalbumin labeling of TGN and pericentriolar recycling compartment; type: cell-based, human; conditions: tamoxifen treatment of MCF-7adr cells
Description: Endocytotic pathway (fourth row): To examine internalization, Bodipy-lactalbumin (Bodipy-Lac, Molecular Probes, Eugene, Oreg.) was used as a fluid phase marker.
Conversion of Bodipy-ceramide to Bodipy-sphingomyelin (in cis-Golgi) is associated with the movement of the newly synthesized fluorescent lipid to the trans-Golgi network (TGN). As the Bodipy-sphingomyelin concentration increases within the TGN and secretory vesicles, a long wavelength shift in fluorescence occurs that results in red fluorescent structures (TGN and secretory vesicles) against a green fluorescent background. […] To examine internalization, Bodipy-lactalbumin (Bodipy-Lac, Molecular Probes, Eugene, Oreg.) was used as a fluid phase marker.

[3] = tested on: MCF-7/ADR cells; test: Lysosomal acidification by DAMP immuno-electron microscopy; type: cell-based, human; set-up: dose or concentration left out as unconfirmed; conditions: MCF-7/ADR cells treated prior to DAMP
Description: pH in the lysosomes: The pH in the lysosomes was assayed both with light and electron microscopy. Light microscopy: […] Cell Biol., 105:2723-2733 (1987)]. The pH was calibrated as described above. Electron microscopy: The cells were incubated with the weak base DAMP, fixed, probed with an mouse antibody to DNP (cross-reacts with DAMP) and visualized with gold-conjugated anti-mouse antibodies. […] Then DAMP was added to a final concentration of at 70 μM and the cells were incubated for another 45 minutes. The medium was replaced with phosphate buffered saline (PBS), pH 7.4, with 4% paraformaldehyde and 0.75% gluteraldehyde. […] They were then stained and visualized under the electron microscope.

[4] = tested on: MCF-7/ADR cells; test: Transport of BODIPY-sphingomyelin from TGN to cell surface; type: cell-based, human; conditions: Tamoxifen 10 μM
Description: When accumulated at high concentrations, BODIPY-sphingomyelin undergoes a green to red shift in fluorescence emission.
Cells were fixed by washing two times in cold fixing buffer (1% paraformaldehyde, 0.1 M sodium cacodylate, 0.1 M sucrose, pH 7.2) followed by a 15 minute incubation in fixing buffer on ice, and then washing two times with cold fixing buffer without paraformaldehyde. […] Biophys.

[5] = tested on: MDA-A1 cells; test: Acridine orange labeling of acidic compartments; type: cell-based, human; conditions: 10 μM Tamoxifen, estrogen receptor negative cells
Description: Labeling of Cells with Acridine Orange: To examine intracellular acidic compartments, acridine orange (6 μM in medium from a 10 mM stock in water) was added directly to cells in the Lab-Tek chambers and the cells were incubated for 15 minutes. Cells in the presence of acridine orange were then examined utilizing an excitation at 488 nm and dual emission confocal images were simultaneously recorded using both a 530-30 band pass barrier filter (green fluorescence) and a 605 nm long pass barrier filter (red fluorescence). Optical sections of the fluorescent samples were recorded at 0.5 micron intervals with a 60×oil immersion objective.
There is red fluorescence in punctate cytoplasmic organelles and in a perinuclear region.

[6] = tested on: MCF-7adr cells; test: Intravesicular pH with SNAFL-calcein; type: cell-based, human; conditions: monensin 10 μg/ml for 30 minutes
Description: FIG. 6a-6c show Measurements of Intravesicular pH utilizing SNAFL-calcein. […] In contrast, significant pH gradients, including an acidic pericentriolar labeling is observed in MCF7adr cells (FIG. 6b). The intravesicular pH in drug-resistant MCF-7adr cells (white bars) is […] than the vesicular pH of the drug-sensitive parental MCF-7 (black bars) (FIG. 6c). This acidic pH difference is reduced by treatment of MCF-7adr cells with monensin (dark grey). Methods: The acetoxymethylester derivative of SNAFL-calcein (15 μg/ml) (a radiometric fluorescent probe for pH) was added to both MCF-7 and MCF-7adr cells. The ester linked fluorescent probe enters the cell passively where the esters are hydrolyzed by esterases located in the cytoplasm and intracellular vesicles. […] The cells were incubated at 37° C. for 45 minutes and then examined in with the Insight confocal fluorescence. […] To obtain a quantitative relationship between emission ratios and pH, each SNAFL-calcein stained cell line was exposed to a buffer at a known pH containing nigericin/high K^+ (18 μM/150 mM KCl). […] These values were then incorporated into a pH imaging routine that provides a direct read-out of pH values for individual intracellular compartments that are queried on the computer screen. […] (c) To prepare histograms of vesicular pH, 5 vesicles within a confocal section were analyzed/cell (20 cells per cell type). […]

SMILES	time for intracellular BODIPY-transferrin to decrease to 50% of its steady-state level ([1]; 10 μM tamoxifen) [min]	BODIPY-transferrin remaining with cells after 25 minutes ([1]; Tamoxifen 10 μM)	BODIPY-transferrin remaining with cells after five minutes ([1]; Tamoxifen 10 μM)	TGN structure (Bodipy-ceramide labeling) [2]	structure of the PRC (bodipy-lactalbumin labeling) [2]	average density of gold particles (anti-DNP labeling of DAMP) per lysosomal area [3]	sphingomyelin fluorescence remaining associated with the cells after two hours [4]	red acridine orange fluorescence after Tamoxifen [5]	red acridine orange fluorescence after Tamoxifen ([5]; listed as tamoxifen)	pH of acidic vesicular compartments after treatment [6]
CC/C(=C(\c1ccccc1)c1ccc(OCCN(C)C)cc1)c1ccccc1 [Tamoxifen]	30	More than 60%	more than 90%	produces a similar fragmentation of TGN structure	disrupts the structure of the PRC	2.0 /μm^2	more than 70%	substantial reduction in the red acridine orange fluorescence	substantial decrease in the red acridine orange fluorescence	–
CC[C@@]1([C@@H]2O[C@@H]([C@H]3O[C@@](O)(CO)[C@H](C)C[C@@H]3C)C[C@@H]2C)CC[C@H]([C@]2(C)CC[C@]3(C[C@H](O)[C@@H](C)[C@@H]([C@@H](C)[C@@H](OC)[C@H](C)C(=O)O)O3)O2)O1 [Monensin]	–	–	–	–	–	zero	–	–	–	alkalization of acidic vesicular compartments to pH values observed for drug sensitive MCF-7 cells

From US20020042079A1, “METHODS AND AGENTS FOR MEASURING AND CONTROLLING MULTIDRUG RESISTANCE” (priority 1994, published 2002)
